According to patent publication US20090156662A1, “Fat Absorption Inhibitor” (ITO EN, LTD., priority 2006, published 2009):

What was measured:
[1] = Micellar cholesterol release: cholesterol remaining in bile acid micelles after incubation with test substance, filtration and GC; details: for micellar cholesterol concentration: Embodiment 4, same method as Embodiment 1, FIG. 5
Protocol: Prepared were micelles composed of 0.5 mM of cholesterol, 6.6 mM of sodium taurocholate, 0.6 mM of phosphatidyl choline of egg yolk origin, 132 mM of sodium chloride (NaCl) and 15 mM of sodium phosphate (NaH2PO4.2H2O). The micelles were incubated for 24 hours at 37° C. for stabilizing the micelles. Then 0.1 mL solution of each theaflavin (manufactured by Nagara Science Co.) was added to each of 3 mL portions of the micelles in such a manner that their concentrations were to be respectively 0 μg, 200 μg and 800 μg to 1 mL of the micelles, which were then incubated at 37° C. for 1 hour. After that, each of solutions was filtered through a 220 nm filter (manufactured by Whatman Co.) to obtain a clear micelle solution. Cholesterol was extracted from each micelle solution obtained, and the concentration of cholesterol remained in the micelles was measured using a gas chromatograph (manufactured by Shimadzu Corp.) using 5α-cholestane as an internal standard.
(§1) Prepared were micelles composed of 0.5 mM of cholesterol (manufactured by Sigma Co.), 6.6 mM of sodium taurocholate (manufactured by Nacalai Tesque Inc.), 0.6 mM of phosphatidyl choline from egg yolk (manufactured by Sigma Co.), 132 mM of sodium chloride (NaCl, manufactured by Nacalai Tesque Inc.) and 15 mM of sodium phosphate (NaH2PO4.2H2O, manufactured by Nacalai Tesque Inc.). The micelles were incubated at 37° C. for 24 hours for stabilization. Then 0.1 mL solution of the theaflavins formulation (manufactured by Funakoshi Corp.) was added to each of 3 mL portions of the micelles in such a manner that their concentrations were respectively 0 μg, 200 μg and 800 μg to 1 mL micelles, and the solutions were incubated at 37° C. for 1 hour (n=3). Each solution was filtered through a 220 nm filter to obtain a clear solution. Cholesterol was extracted from each micelle solution, and cholesterol remained in the micelle was measured with a gas chromatograph (manufactured by Shimadzu Corp.) using 5α-cholestane as an internal standard.
Next, micelles for test were prepared (pH 6.8) at a composition of 0.5 mM of cholesterol, 6.6 mM of sodium taurocholate, 0.6 mM of egg yolk phosphatidyl choline, 132 mM of sodium chloride (NaCl) and sodium phosphate (NaH2PO4.2H2O), and the micelles were incubated at 37° C. for 24 hours for stabilization. […]

[2] = Concentration of bile acid in the micelle solution by the enzymatic method (Eaton et al.); details: Embodiment 3; FIG. 4
Protocol: as §1
Moreover, the concentration of bile acid was measured by the enzymatic method in accordance with the process of Eaton et al (Eaton, D. L. et al., Proc. Soc. Exp. Biol. Med. 1976, January; 151(1): 198-202).

[3] = Micellar cholesterol release: cholesterol remaining in bile acid micelles after incubation with test substance, filtration and GC; details: for concentration of cholesterol in the micelles / concentration of micellar cholesterol relative to the case using theaflavin or theaflavin digallate: Embodiment 1; for concentration of cholesterol in the micelles: amount of addition raised up to 0.5 mM, incubated 37° C. 1 hour, FIG. 1; for concentration of micellar cholesterol relative to the case using theaflavin or theaflavin digallate: at an amount of 0.5 mM addition

concentration of micellar cholesterol relative to the case using theaflavin or theaflavin digallate [3] | Compound | micellar cholesterol concentration [1] | concentration of cholesterol in the micelles [3] | further results
 | O=C(O[C@@H]1Cc2c(O)cc(O)cc2O[C@@H]1c1ccc(O)c(O)c1)c1cc(O)c(O)c(O)c1 [epicatechin gallate] | little effect |  | 
 | O=C(O[C@@H]1Cc2c(O)cc(O)cc2O[C@@H]1c1cc(O)c(O)c(O)c1)c1cc(O)c(O)c(O)c1 [epigallocatechin gallate] | decreased |  | concentration of cholesterol in the micelles ([1]; Embodiment 3, 0, 200 and 800 μg to 1 mL micelles, 37° C. 1 hour, n=3, FIG. 3): decreased; effect on the concentration of bile acid [2]: did not show any effect
 | O=C(O[C@@H]1Cc2c(O)cc(O)cc2O[C@@H]1c1cc(O)c(=O)c2c(O)c(O)cc([C@H]3Oc4cc(O)cc(O)c4C[C@H]3OC(=O)c3cc(O)c(O)c(O)c3)c2c1)c1cc(O)c(O)c(O)c1 [theaflavin-3,3′-digallate] | little effect | did not change | micelle formation inhibitory effect ([3]; Embodiment 2, amount of addition increased up to 2 mmol/L, FIG. 2): excellent micelle formation inhibitory effect; cholesterol decreasing effect ([3]; Embodiment 2, amount of addition up to 1 mmol/L, FIG. 2): relatively gentle
decreased about twice | O=C(O[C@@H]1Cc2c(O)cc(O)cc2O[C@@H]1c1cc(=O)c(O)c2c(O)c(O)cc([C@H]3Oc4cc(O)cc(O)c4C[C@H]3O)c2c1)c1cc(O)c(O)c(O)c1 [theaflavin-3-monogallate] |  | decreased in a manner dependent on the amount of addition | 
decreased about twice | O=C(O[C@@H]1Cc2c(O)cc(O)cc2O[C@@H]1c1cc(O)c(O)c2c(=O)c(O)cc([C@H]3Oc4cc(O)cc(O)c4C[C@H]3O)cc12)c1cc(O)c(O)c(O)c1 [theaflavin-3′-monogallate] |  | decreased in a manner dependent on the amount of addition | 
 | O=c1c(O)cc([C@H]2Oc3cc(O)cc(O)c3C[C@H]2O)cc2c([C@H]3Oc4cc(O)cc(O)c4C[C@H]3O)cc(O)c(O)c12 [theaflavin] |  | did not change | 
